Test results from patent US9895362B2, “Pharmaceutical composition combining an anticonvulsant and a derivate of nicotinic acid” (Farmacéuticos Rayere, S.A., priority 2014, dated 2018).

Experiments:
[1] = system: mechanical allodynia (injury of the sciatic nerve); assay: Experimental model of neuropathic pain due to injury (ligation and cutting) of the sciatic nerve; mechanical allodynia by Von Frey filaments assay; isobolographic analysis; type: in vivo, mice; conditions: for DE30: drugs administered individually, intraperitoneal, linear regression, AUC at 4 hours; for dose dependence of antiallodynic effect: intraperitoneal administration
Text: To evaluate the analgesic efficacy of the CLG combination in neuropathic pain due to injury to the nerve, an experimental model of neuropathic pain due to ligation and cutting of sciatic nerve in mice was used. The procedure used was based on that described by I. Decosterd and C. J. Woolf (2000), which consists of isolating, tying and injuring the sciatic nerve of the mouse, followed by evaluation of the mechanical allodynia resulting from damage to the nerve.
The surgery consisted of making an incision of approximately 1 cm in the direction proximal longitudinal to the knee and afterwards opening the skin by blunt dissection and separating the muscular layer by dissection lateral to the blood vessel near the femur. Then the right sciatic nerve was exposed under the muscles, separating them with care to display the sciatic nerve in the region where it branches from the sural nerve. Only the sciatic nerve was sutured with No. 6 thread, trying not to damage the sural nerve in any way. A tight surgical knot was made on the sciatic nerve by cutting below the suture with a pair of tweezers, then stitching the muscle layer and the skin by surgical knots. […] Consequently, the antiallodynic effect of the drugs is evaluated from the second or third day after the surgery. For validation of the model, as a surgery control group, a sham surgery was used, in which the sciatic nerve is only exposed surgically, without ligation or cutting, and then the muscle tissue and skin is stitched.
In all groups, the evaluation of mechanical allodynia with the application of Von Frey filaments was done in the same manner as described above for the model of pain due to diabetic neuropathy. The response thresholds in both legs, ipsilateral (right) and contralateral (left), were evaluated.
For systemic administration of the drugs individually and in combinations in the mechanical allodynia model, different groups were used to characterize the dose-response curve by administering the drugs on the third day after the surgery. The doses for gabapentin were 50, 100 and 150 mg/kg, and for lysine clonixinate they were 75, 150 and 300 mg/kg. Afterwards, as described below, other groups were administered different doses of the CLG combination. Both gabapentin and lysine clonixinate and their combinations were dissolved in a 0.9% saline solution. Groups of animals were used with an experimental n of 6 to 8. A 0.9% saline solution was administered by intraperitoneal route to an experimental control group.
To evaluate the net antiallodynic effect, the area under the curve of the time courses evaluated at 4 hours post treatment, both of the ipsilateral and the contralateral leg, was obtained using the trapezoid rule. […] FIG. 10 represents the dose-antiallodynic effect curves, corresponding to gabapentin and lysine clonixinate administered individually. By means of linear regression, the DE30 values of the drugs administered individually were obtained.
In the same way as was done in the previous model, isobolographic analysis was used to evaluate the effect of the CLG combination in relation to the effect of each drug individually. From the respective DE30 of the individual drugs, combinations of gabapentin and CL in fixed proportions were evaluated.

[2] = system: mechanical allodynia (diabetic neuropathy induced with streptozotocin); assay: Model of pain due to diabetic neuropathy induced with streptozotocin; mechanical allodynia by Von Frey filaments assay; isobolographic analysis; type: in vivo, male BALB/c mice; conditions: for DE30 (effective dose that provides an analgesic effect of 30%): drugs administered individually, antiallodynic effect from AUC at 4 hours post-treatment; for dose-antiallodynic effect curve: gabapentin 50, 100, 150 mg/kg, lysine clonixinate 75, 150, 300 mg/kg, individually
Protocol: In this example, a model of neuropathic pain induced by streptozotocin in male BALB/c mice 6-8 weeks of age is used. The procedure used was based on one described and widely validated (Ahlgren, S. C. and Levine, J. D., 1993), which consists in an intraperitoneal injection of streptozotocin (45 mg/kg) in 0.2 mL of saline solution. […] The blood glucose levels were evaluated in 4 groups of mice with the following characteristics: 1) without treatment (basal), 2) with treatment in fasting, 3) after 1 day of treatment and 4) after 4 days of treatment. As a diabetes parameter, a plasma glucose level≧200 mg/dL was taken.
Allodynia was determined by mechanical stimulation through progressively […] application of different forces with Von Frey filaments of different caliber. The mice were placed in plastic cylinders on a wire mesh table for 15 minutes, ensuring that they were calm, and subsequently the filaments were progressively applied to the side of the leg. The filament of 0.02 g of force was the first to be applied to the left leg, five times during a total period of 30 seconds (approximately 2 seconds per stimulus), the reaction of the mouse being determined after each application. The response observed is the withdrawal or licking of the leg. If three of the five stimuli are observed, the reaction is considered positive and the mechanical threshold of the response is established.
Different groups were used to characterize the dose-response curve of the analgesics, administering the drugs after inducing of diabetes. The doses for gabapentin were 50, 100 and 150 mg/kg, and for lysine clonixinate they were 75, 150 and 300 mg/kg. Groups of animals were used with n≧8. A 0.9% saline solution was administered by intraperitoneal route as a control of each experimental group.
For determination of antiallodynic efficacy, the mean threshold in each group was plotted as a function of time after the administration of the drugs individually or in combination, and the area below the curve (ABC) was obtained using the trapezoid rule. The percentage increase of the threshold was calculated using the following equation: […]
To evaluate the net antiallodynic effect, the area under the curve of the time courses evaluated at 4 hours post-treatment was obtained.
To evaluate the effect of the CLG combination in relation to the effect of each drug individually, isobolographic analysis was used. […] From the respective DE30 of the individual drugs, combinations of gabapentin and CL in fixed proportions were made and evaluated.
Subsequently, a dose-response curve was plotted after coadministration of the two drugs. […] The data represent the mean and the standard error of 8 mice.
Once the DE30 values, both the theoretical and experimental, were obtained, a statistical comparison of the additive theoretical point and the experimental DE30 value was done using a Student's t-test. The type of interaction between the two drugs was established by constructing an isobologram as follows. For each of the individual agents, the dose that produces 30% of antiallodynic effect (DE30) was plotted in rectangular coordinates (x, y). The line that connects these two points is termed “isobolic” or the “additivity line,” and on this line are all the possible combinations of the two drugs that produce only an additivity or summation effect.
To describe the magnitude of the interaction, the interaction index value (γ), which is a quantitative measure of the interaction between two drugs, was calculated: […]

[3] = system: neurological profile (behavior, reflexes, convulsions, motor coordination); assay: Neurological profile after subchronic administration (14 days); type: in vivo, mice; conditions: for value of all the parameters of the neurological profile: 14 days of treatment, at these doses; for Behavior: Exploratory Activity / Behavior: Flabbiness / Behavior: Irritability / Behavior: State of Alert / Behavior: Straightening of Tail / Behavior: Vocalization / Convulsions: Clonic / Convulsions: Gait Movements / Convulsions: Jumping Movement / Convulsions: Tonic / Motor Coordination: Abnormal Gait / Motor Coordination: Paralysis / Motor Coordination: Running in Circles / Motor Coordination: Staggering Gait / Reflexes: Corneal: i.p. daily 14 days, gabapentin 31 mg/kg, lysine clonixinate 150 mg/kg, or both
Protocol: The motor activity and biochemical profile evaluation data were evaluated by an analysis of variance (ANOVA), followed by a Dunnett test. The neurological profile data were evaluated by grading, with 0=null, […] and 3=significant. […] This administration was done consecutively every 24 hours. After 14 days of exposure, toxicological tests were done. A daily evaluation was simultaneously done of the neurological profile, since one critical aspect in all experimental models of nervous system pathologies is evaluation of the final neurological prognosis. In the case of subchronic administration of medication, evaluation of the final functional deficit is a valuable tool. Therefore, after receiving a daily dose for 14 days, the mice underwent an evaluation of the neurological profile of the experimental animals. This evaluation included parameters such as behavior, reflexes, convulsions and motor coordination. Each parameter was graded on a scale of 0=null, 1=slight, 2=moderate and 3=considerable.

[4] = patients treated with gabapentin; cited from earlier work
neuropathic pain = assay: Overall conclusions from both mouse models of neuropathic pain; type: in vivo, mice; conditions: lysine clonixinate alone, in the studies performed
Text: In the present study, we used two mouse models to study neuropathic pain: the model of diabetic neuropathy induced by streptozotocin and the model of neuropathic pain induced by a physical injury to the sciatic nerve.

## NCC1(CC(=O)O)CCCCC1 [gabapentin, 2-[1-(aminomethyl)cyclohexyl] acetic acid]
[1]
  DE30: 83.82 mg/kg
  dose dependence of antiallodynic effect: dose dependent increase
[2]; diabetic neuropathy model
  DE30 (effective dose that provides an analgesic effect of 30%): 39.62 ± 1.35 mg/kg
[2]; diabetic neuropathy model, listed as Gabapentin
  DE30 (effective dose that provides an analgesic effect of 30%): 39.62 mg/kg
[2]
  dose-antiallodynic effect curve: dose-dependent increase
[3]
  value of all the parameters of the neurological profile: 0
  Behavior: Exploratory Activity: 0
  Behavior: Flabbiness: 0
  Behavior: Irritability: 0
  Behavior: State of Alert: 0
  Behavior: Straightening of Tail: 0
  Behavior: Vocalization: 0
  Convulsions: Clonic: 0
  Convulsions: Gait Movements: 0
  Convulsions: Jumping Movement: 0
  Convulsions: Tonic: 0
  Motor Coordination: Abnormal Gait: 0
  Motor Coordination: Paralysis: 0
  Motor Coordination: Running in Circles: 0
  Motor Coordination: Staggering Gait: 0
  Reflexes: Corneal: 0
[4]
  patients showing drowsiness, dizziness, ataxia, headache and fatigue: more than 10%

## Cc1c(Cl)cccc1Nc1ncccc1C(=O)O.NCCCC[C@H](N)C(=O)O [lysine clonixinate, lysine salt of 2-[(3-chloro-2-methylphenyl)amino]-3-pryridinecarboxylic acid]
[1]; administered individually
  antiallodynic effect (in words): moderate antiallodynic effect
[1]
  DE30: 579.67 mg/kg
  dose dependence of antiallodynic effect: dose dependent increase
Neuropathic pain
  effect on neuropathic pain (maximum found): up to 30%
[2]; administered individually, diabetic neuropathy model
  antiallodynic effect (in words): moderate antiallodynic effect
[2]; diabetic neuropathy model
  DE30 (effective dose that provides an analgesic effect of 30%): 150.41 ± 25.49 mg/kg
[2]; diabetic neuropathy model, listed as Lysine Clonixinate
  DE30 (effective dose that provides an analgesic effect of 30%): 150.41 mg/kg
[2]
  dose-antiallodynic effect curve: dose-dependent increase
[3]
  value of all the parameters of the neurological profile: 0
  Behavior: Exploratory Activity: 0
  Behavior: Flabbiness: 0
  Behavior: Irritability: 0
  Behavior: State of Alert: 0
  Behavior: Straightening of Tail: 0
  Behavior: Vocalization: 0
  Convulsions: Clonic: 0
  Convulsions: Gait Movements: 0
  Convulsions: Jumping Movement: 0
  Convulsions: Tonic: 0
  Motor Coordination: Abnormal Gait: 0
  Motor Coordination: Paralysis: 0
  Motor Coordination: Running in Circles: 0
  Motor Coordination: Staggering Gait: 0
  Reflexes: Corneal: 0
